Where two headings read alike, the source gives them in different places.
Assays:
METTL3/METTL14 = METTL3/METTL14 (Homo sapiens, UniProt Q86U44); experiment: METTL3-14 Standard Enzyme Assay (METTL3 biochemical assay)
Procedure, shortened: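 Tritium transfer from ³H-SAM (100 nM) to biotinylated RNA (100 nM) captured on streptavidin flashplates and counted by scintillation. Enzyme complex (2.5 nM) with compound, 5 min preincubation, 30 min reaction at ambient temperature, HEPES pH 7.5 buffer, stopped by excess unlabeled SAM.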

PRMT5-MEP50 = PRMT5-MEP50 (Homo sapiens, UniProt O14744); experiment: PRMT5 Assay (PRMT5 biochemical assay)
Procedure, shortened: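 Radiometric methyltransferase read-out: after 60 min reaction, excess unlabelled SAM (15 μM) stops turnover and biotinylated H4 peptide (100 nM) carrying 3H-methyl from 250 nM 3H-SAM is captured on streptavidin flashplates (2 h, 25° C) for scintillation counting. Enzyme, 2.5 nM PRMT5-MEP50, was preincubated 5 min with compound in pH 8.0 Tris buffer with DTT and Tween.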

MOLM-13 cells [1] = experiment: MOLM-13 96 Hour Cell Proliferation Assay; format: cell-based; conditions: Homo sapiens
Experimental: MOLM-13 (DSMZ) cells were seeded at 600 cells per well in a volume of 44 μL in a Greiner Bio-One CELLSTAR™ 384 Well Polystyrene Cell Culture clear bottom microplate in RPMI 1640 media containing 10% fetal bovine serum using a Multidrop Combi (ThermoFisher Scientific). Cells were incubated overnight at 37° C. in a humidified tissue culture incubator. To prevent evaporation or to reduce edge effect, add 50 μL or more H2O to an empty plate, cover, and place on top of the cell plates. The Mosquito® HTS Liquid Handler was used to make a compound/media intermediate plate by aliquoting 1 μL of compound from the initial compound dilution plate (concentrations ranging from 10.0 mM to 38.0 nM in 100% DMSO) into Bio-One 384-well polypropylene conical bottom microplate containing 49 μL of media containing the appropriate serum (50-fold dilution, 2% DMSO, compound concentrations ranging from 200.0 μM and […]). The Apricot liquid handling system was used to transfer 6.2 μL compounds from the intermediate plate into the seeding plate containing 44 μL cells (8-fold dilution spanning concentrations 25.0 μM to […], 0.25% DMSO final), and placed in a humidified tissue culture incubator at 37° C. After 96 hours, 25 μL of Cell Titer-Glo reagent (Promega) was added to each well using an Integra liquid handling system. The plate was protected from light using TopSeal-A (Black) film over the entire plate, added White Bottom seal film on the bottom of the entire plate for a better reading on the Envision, and placed on an IKA plate shaker for at 300 rpm for 10 minutes at room temperature. The plate was read on an EnVision plate reader (Perkin Elmer) using the Ultra Sensitive Luminescence protocol. Data analysis was performed by normalizing the raw luminescence units to an average of the positive control values for staurosporine (100% cell death) and the negative control values for DMSO (0% cell death). An IC50 was calculated using a 4-parameter logistic nonlinear regression model in GraphPad Prism.

METTL1/WDR4 = METTL1/WDR4 (Homo sapiens, UniProt Q9UBP6); experiment: METTL1 Assay (METTL1 biochemical assay)
Procedure, shortened: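 Radiometric methyltransfer by METTL1/WDR4 (6.25 nM f.c., 5 min preincubation) at ambient temperature in HEPES pH 7.5, KCl, MgCl2, DTT; started with 25 nM 3′-biotinylated RNA and 60 nM 3H-SAM, run 20 min, quenched with 15 μM cold SAM. Product captured on streptavidin flashplates (2 h, 25° C), counted by scintillation.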

MOLM-13 cells [2] = experiment: MOLM-13 48 Hour Cell Proliferation Assay; format: cell-based; conditions: Homo sapiens
Experimental: MOLM-13 (DSMZ) cells were seeded at 1000 cells per well in a volume of 44 μL in a Falcon 384-well tissue culture treated clear bottom microplate in RPMI 1640 media containing 10% fetal bovine serum using a Multidrop Combi (ThermoFisher Scientific). Cells were incubated overnight at 37° C. in a humidified tissue culture incubator. The Mosquito® HTS Liquid Handler was used to make a compound/media intermediate plate by aliquoting 1 μL of compound from the initial compound dilution plate (concentrations ranging from 10.0 mM to 38.0 nM in 100% DMSO) into a V bottom 384-well screen matrix plate containing 49 μL of media containing the appropriate serum (50-fold dilution, 2% DMSO). The Apricot liquid handling system was used to transfer 6.2 μL compounds from the intermediate plate into the Falcon 384-well tissue culture plate containing 44 μL cells (10-point, 4-fold dilution spanning concentrations 25.0 μM to […], 0.25% DMSO final), and placed in a humidified tissue culture incubator at 37° C. After 48 hours, 25 μL of Cell Titer-Glo reagent (Promega) was added to each well using a Multidrop Combi. The plate was protected from light and placed on an IKA plate shaker for at 300 rpm for 10 minutes at room temperature. The plate was read on an EnVision plate reader (Perkin Elmer) using the Ultra Sensitive Luminescence protocol. Data analysis was performed by normalizing the raw luminescence units to an average of the positive control values for staurosporine (100% cell death) and the negative control values for DMSO (0% cell death). An IC50 was calculated using a 4-parameter logistic nonlinear regression model in GraphPad Prism.

[3] = read-out: METTL3 IC50, METTL3 biochemical assay
[4] = read-out: PRMT5 IC50; PRMT5 biochemical assay
[5] = METTL1 biochemical assay; read-out: METTL1 IC50
[6] = METTL3 biochemical assay, read-out: METTL3 IC50
[7] = PRMT5 biochemical assay; read-out: PRMT5 IC50
[8] = read-out: METTL1 IC50; METTL1 biochemical assay

Chain of PRMT5-MEP50 (O14744 whole entry): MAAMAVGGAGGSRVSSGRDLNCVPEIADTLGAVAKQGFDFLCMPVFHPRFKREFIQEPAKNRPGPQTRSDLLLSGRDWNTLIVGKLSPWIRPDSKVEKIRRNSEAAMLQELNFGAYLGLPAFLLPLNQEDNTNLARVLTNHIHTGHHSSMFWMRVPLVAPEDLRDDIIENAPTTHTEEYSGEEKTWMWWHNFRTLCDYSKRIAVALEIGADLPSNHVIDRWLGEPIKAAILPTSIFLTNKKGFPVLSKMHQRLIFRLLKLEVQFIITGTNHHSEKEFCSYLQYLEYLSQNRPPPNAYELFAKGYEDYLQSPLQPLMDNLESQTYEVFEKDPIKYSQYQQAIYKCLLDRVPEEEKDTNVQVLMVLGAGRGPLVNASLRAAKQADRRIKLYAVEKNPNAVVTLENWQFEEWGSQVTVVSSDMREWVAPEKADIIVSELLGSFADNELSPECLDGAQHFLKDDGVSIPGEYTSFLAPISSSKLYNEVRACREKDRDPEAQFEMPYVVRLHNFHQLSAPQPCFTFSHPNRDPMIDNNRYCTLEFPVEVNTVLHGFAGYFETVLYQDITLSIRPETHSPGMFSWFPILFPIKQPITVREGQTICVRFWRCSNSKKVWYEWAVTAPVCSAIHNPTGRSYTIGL
Chain of PRMT5-MEP50 (Q9BQA1 whole entry partner): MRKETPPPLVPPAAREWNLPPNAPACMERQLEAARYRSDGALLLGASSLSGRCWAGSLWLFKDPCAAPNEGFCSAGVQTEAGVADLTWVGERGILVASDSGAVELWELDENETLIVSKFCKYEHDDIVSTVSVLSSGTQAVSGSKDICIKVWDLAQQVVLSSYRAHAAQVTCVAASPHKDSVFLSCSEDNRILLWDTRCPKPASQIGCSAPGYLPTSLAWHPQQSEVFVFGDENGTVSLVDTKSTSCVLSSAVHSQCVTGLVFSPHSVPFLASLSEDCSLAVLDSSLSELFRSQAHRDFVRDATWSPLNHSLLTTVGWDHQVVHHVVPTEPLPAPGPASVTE
Chain of METTL1/WDR4 (Q9UBP6 whole entry, species assumed): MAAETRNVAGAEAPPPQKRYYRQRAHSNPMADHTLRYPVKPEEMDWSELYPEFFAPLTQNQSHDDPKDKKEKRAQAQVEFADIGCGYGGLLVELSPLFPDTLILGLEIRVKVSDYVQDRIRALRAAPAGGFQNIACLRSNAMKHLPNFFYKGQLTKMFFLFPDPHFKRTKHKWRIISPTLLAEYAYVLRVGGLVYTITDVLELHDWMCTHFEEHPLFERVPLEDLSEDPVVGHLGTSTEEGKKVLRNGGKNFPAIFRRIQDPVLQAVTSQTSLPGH
Chain of METTL1/WDR4 (P57081 whole entry partner, species assumed): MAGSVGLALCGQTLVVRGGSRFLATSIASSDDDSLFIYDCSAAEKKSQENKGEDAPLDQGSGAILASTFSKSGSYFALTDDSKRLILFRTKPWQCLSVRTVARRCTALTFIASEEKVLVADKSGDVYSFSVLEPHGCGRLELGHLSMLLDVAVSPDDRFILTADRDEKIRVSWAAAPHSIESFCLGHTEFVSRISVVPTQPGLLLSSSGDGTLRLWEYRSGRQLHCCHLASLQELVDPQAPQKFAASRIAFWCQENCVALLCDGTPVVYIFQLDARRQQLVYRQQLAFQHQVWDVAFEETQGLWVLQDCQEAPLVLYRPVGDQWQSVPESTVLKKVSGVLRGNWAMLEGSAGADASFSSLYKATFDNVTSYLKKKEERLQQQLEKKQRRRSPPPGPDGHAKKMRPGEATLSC
Chain of METTL3/METTL14 (Q86U44 whole entry, species assumed): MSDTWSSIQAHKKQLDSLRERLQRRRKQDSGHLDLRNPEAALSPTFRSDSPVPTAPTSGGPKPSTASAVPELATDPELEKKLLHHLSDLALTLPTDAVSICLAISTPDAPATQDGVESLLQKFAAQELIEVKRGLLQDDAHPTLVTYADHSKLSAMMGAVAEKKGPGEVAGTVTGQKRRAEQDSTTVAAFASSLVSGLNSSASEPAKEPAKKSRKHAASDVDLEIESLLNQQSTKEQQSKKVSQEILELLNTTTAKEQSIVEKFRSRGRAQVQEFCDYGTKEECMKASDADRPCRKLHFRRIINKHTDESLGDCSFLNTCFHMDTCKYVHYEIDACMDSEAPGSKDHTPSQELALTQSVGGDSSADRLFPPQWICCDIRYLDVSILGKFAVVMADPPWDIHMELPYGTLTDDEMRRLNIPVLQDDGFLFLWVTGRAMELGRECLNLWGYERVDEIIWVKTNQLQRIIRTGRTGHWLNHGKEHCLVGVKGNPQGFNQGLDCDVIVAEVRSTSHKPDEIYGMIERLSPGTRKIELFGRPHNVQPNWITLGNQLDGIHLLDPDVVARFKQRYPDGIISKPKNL
Chain of METTL3/METTL14 (Q9HCE5 whole entry partner, species assumed): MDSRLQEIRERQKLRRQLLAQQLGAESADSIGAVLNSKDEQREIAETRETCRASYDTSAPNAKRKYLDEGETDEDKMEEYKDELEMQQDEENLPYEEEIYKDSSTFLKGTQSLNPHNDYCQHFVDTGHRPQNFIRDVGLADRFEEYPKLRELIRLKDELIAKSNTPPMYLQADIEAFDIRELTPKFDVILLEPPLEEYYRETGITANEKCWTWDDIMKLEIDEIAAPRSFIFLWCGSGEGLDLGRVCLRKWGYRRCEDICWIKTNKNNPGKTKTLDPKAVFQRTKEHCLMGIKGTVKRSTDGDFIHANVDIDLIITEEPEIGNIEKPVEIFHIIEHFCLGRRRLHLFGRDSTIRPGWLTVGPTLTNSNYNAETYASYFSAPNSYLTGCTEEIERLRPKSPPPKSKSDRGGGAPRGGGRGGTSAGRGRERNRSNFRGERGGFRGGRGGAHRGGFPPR

Row | SMILES | IC50 (MOLM-13 cells [1]) [nM] | IC50 (PRMT5-MEP50; [7]) [nM] | IC50 (MOLM-13 cells [2]) [nM] | IC50 (METTL3/METTL14) [nM] | also measured
1 | CCn1ccc(-c2cn([C@@H]3O[C@H](COc4ccc5ccc(NC)nc5c4)[C@@H](O)[C@@H]3F)c3ncnc(N)c23)n1 [I-3] | < 1000 |  |  |  | IC50 (METTL3/METTL14; [3]): < 10 nM; IC50 (PRMT5-MEP50; [4]): 10 to 100 nM
2 | CCNc1ccc2ccc(OC[C@H]3O[C@@H](n4cc(-c5ccn(C)n5)c5c(N)ncnc54)[C@@H](F)[C@@H]3O)cc2n1 [I-7] |  |  |  |  | IC50 (METTL3/METTL14; [3]): < 10 nM; IC50 (PRMT5-MEP50; [4]): 10 to 100 nM; IC50 (MOLM-13 cells [1]; MOLM-13, 96 h): < 1000 nM; IC50 (METTL1/WDR4; [5]): > 1000 nM
3 | CNc1ccc2cc(CC[C@H]3C[C@@H](n4ccc5c(N)ncnc54)[C@H](O)[C@@H]3O)ccc2n1 [I-111] |  | < 10 |  |  | IC50 (METTL3/METTL14; [6]): 100 to 1000 nM; IC50 (MOLM-13 cells [1]; MOLM-13, 96 h): 1000 to 10000 nM; IC50 (METTL1/WDR4; [8]): > 1000 nM
4 | Nc1ccc2cc(CC[C@H]3C[C@@H](n4ccc5c(N)ncnc54)[C@H](O)[C@@H]3O)ccc2n1 [I-125] |  | < 10 |  |  | IC50 (METTL3/METTL14; [6]): 100 to 1000 nM; IC50 (MOLM-13 cells [1]; MOLM-13, 96 h): 1000 to 10000 nM; IC50 (METTL1/WDR4; [8]): > 1000 nM
5 | Nc1ncnc2c1ccn2[C@@H]1C[C@H](CCc2ccc3nccnc3c2)[C@@H](O)[C@H]1O [I-130] |  | < 10 |  |  | IC50 (MOLM-13 cells [1]; MOLM-13, 96 h): < 1000 nM; IC50 (METTL1/WDR4; [8]): > 1000 nM
6 | CNc1ccc2ccc(OC[C@H]3O[C@@H](n4cc(CC5CC5)c5c(N)ncnc54)[C@H](O)[C@@H]3O)cc2n1 [I-142] |  | 10 to 100 | 1000 to 10000 |  | IC50 (METTL3/METTL14; [6]): < 10 nM; IC50 (METTL1/WDR4; [8]): > 1000 nM
7 | CNc1ccc2ccc(OC[C@H]3O[C@@H](n4cc(-c5ccn(C6CCC6)n5)c5c(N)ncnc54)[C@@H](F)[C@@H]3O)cc2n1 [I-143] |  | 100 to 1000 | 1000 to 10000 |  | IC50 (METTL3/METTL14; [6]): < 10 nM; IC50 (METTL1/WDR4; [5]): > 1000 nM
8 | CNc1ccc2ccc(OC[C@H]3O[C@@H](n4cc(-c5ccn(C6COC6)n5)c5c(N)ncnc54)[C@@H](F)[C@@H]3O)cc2n1 [I-144] |  |  | 1000 to 10000 |  | IC50 (METTL3/METTL14; [3]): < 10 nM; IC50 (PRMT5-MEP50; [4]): 100 to 1000 nM; IC50 (METTL1/WDR4; [5]): > 1000 nM
9 | CCc1cc(N(C)C)c2ccc(OC[C@H]3O[C@@H](n4cc(-c5ccn(C)n5)c5c(N)ncnc54)[C@@H](F)[C@@H]3O)cc2n1 [I-153] | < 1000 |  | 1000 to 10000 | < 10 | 
10 | CCc1cc(N(C)C2CC2)c2ccc(OC[C@H]3O[C@@H](n4cc(-c5ccn(C)n5)c5c(N)ncnc54)[C@@H](F)[C@@H]3O)cc2n1 [I-154] | 1000 to 10000 |  | 1000 to 10000 | < 10 | 
11 | CCc1cc(N(C)CC2CC2)c2ccc(OC[C@H]3O[C@@H](n4cc(-c5ccn(C)n5)c5c(N)ncnc54)[C@@H](F)[C@@H]3O)cc2n1 [I-155] | < 1000 |  | 1000 to 10000 | < 10 | 
12 | CCc1cc(N2CCOCC2)c2ccc(OC[C@H]3O[C@@H](n4cc(-c5ccn(C)n5)c5c(N)ncnc54)[C@@H](F)[C@@H]3O)cc2n1 [I-156] | < 1000 |  | 1000 to 10000 | < 10 | 
13 | CCc1cc(NCCOC)c2ncc(OC[C@H]3O[C@@H](n4cc(-c5ccn(C)n5)c5c(N)ncnc54)[C@H](O)[C@@H]3O)cc2n1 [I-159] | 1000 to 10000 |  | > 10000 | < 10 | 
14 | CCc1cc(N(C)C2CC2)c2ccc(OC[C@H]3O[C@@H](n4cc(-c5ccn(C)n5)c5c(N)ncnc54)C[C@@H]3O)cc2n1 [I-160] | 1000 to 10000 |  | 1000 to 10000 | < 10 | 
